From patent US20210355421A1, “DEVICES AND METHODS FOR PRODUCTION OF CELL AGGREGATES” (priority 2007, published 2021)
Entries after “also recorded” stand apart in the source; their conditions may differ.

How the values were obtained:
hESC [1] = assay: aggregate formation from hESC cultured on Matrigel after BMP pre-differentiation; type: cell-based, human; settings: 50 ng/mL BMP4 pre-differentiation, control population did not form aggregates
hESC [2] = assay: forced aggregation of hESC with or without ROCK inhibitor Y-27632; type: cell-based, human
Protocol: • 1. […] The precise degree of pre-differentiation that is optimal will vary with the cell line in question, exact maintenance techniques, etc. If EB coherence is still insufficient after treatment as above, pre-differentiation can be started earlier (i.e the duration increased) or (if using BMPs), BMP concentration can be increased. […] Prepare low-adsorbance well plates: • a) dispense 40 μL (for 96-well plates) or 25 μL (for 384-well plates) of 5% Pluronic acid in PBS into the plates • b) incubate 30 minutes at room temperature • c) remove pluronic acid solution by pipetting or by inverted centrifugation in the device described and illustrated in FIG. 1 or 2 for 1 minute at 240×g • 3. Prepare a single-cell suspension by treating the hESC culture with TrypIE for 5 minutes, and washing the cells off with X-Vivo10 • 4. Count cells, spin down and re-suspend to 1 million cells/mL in X-Vivo or other medium of interest. Cells may all derive from a single culture, or cells from different sources may be combined. • 5. […] In the absence of both, no aggregates were formed (N.D.—size not determined). […]

| Molecule | stable aggregate formation after BMP4 pre-differentiation (hESC [1]) | aggregate size and symmetry (hESC [2]; 10 μM Y-27632, hESC cultured on Matrigel, 2,000 cells per well, without or with 48 hours pre-differentiation in serum-containing medium) | SISO-aggregate formation / aggregate stability (hESC [2]; 10 μM Y-27632 added to cell suspension immediately prior to dispensing, hESC on Matrigel in MEF-conditioned medium, without or with pre-differentiation) |
| --- | --- | --- | --- |
| BMP4: bone morphogenetic protein used as growth factor for pre-differentiation | Aggregates formed from the pre-differentiated population |  |  |
| C[C@@H](N)[C@H]1CC[C@H](C(=O)Nc2ccncc2)CC1 [Y-27632] |  | substantially increased aggregate size and symmetry; also recorded: size and symmetry of aggregates are improved | sizeable aggregates resulted |
